This assay deals with CEM cells HIV-1 protection, formazan growth assay. In words: NCI AIDS Antiviral Assay. The conditions noted are these: for IC50: measured here: growth of uninfected CEM cells. Put shortly: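 Screen of anti-HIV-1 activity in human CEM cells using a formazan-based growth measurement at five drug concentrations. Hits with 50% or greater protection were repeated, and confirmation required reproducible complete protection.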

Where “and” joins values, the source holds several entries; their conditions need not be identical. Equal values may be shown once. Calls of active or inactive are those of the source.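 The calls were made as follows: active = compounds giving half or more protection of infected cells from virus-caused growth loss, again on retest; inactive = the rest.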 Where a SMILES comes first, the peptide text is derived from it. [ ]: non-standard residue; d: D form. The star is where a group is joined. X10 = CC(C)CN(C[C@@H](O)[C@H](Cc1ccc(OCC(=O)*)cc1)NC(=O)O[C@H]1CCOC1)S(=O)(=O)c1ccc(N)cc1; NMeLeu(3R-OH) = CN[C@H](C(=O)O)[C@H](O)C(C)C; NMeL = CN[C@@H](CC(C)C)C(=O)O; NMeV = CN[C@H](C(=O)O)C(C)C; dNMeS = CN[C@H](CO)C(=O)O; Abu = CC[C@H](N)C(=O)O A value given as a limit tells only on which side of the number the result lay.

As a reminder, the EC50 is the midpoint of the concentration-response curve. The term IC50 denotes the concentration at which inhibition is half-maximal. Read a high IC50 as a need for much substance. As to `N=c1c2ncn3c(=O)n(-c4ccccc4)c(nc(=O)n1-c1ccccc1)c23`, the EC50 is greater than 14.5 µM and the IC50 amounted to 8.32 µM. Consider `c1cc2nnc1SCCCSc1ccc(nn1)SCCCS2`, for which the EC50 is greater than 126 µM and the IC50 worked out at 115 µM. For the compound `C[N+]12CCCCC1C(CN1C(=O)c3ccccc3C1=O)CCC2` (stereo not given), the EC50 was 58.9 µM and the IC50 is greater than 200 µM.

With `Cc1cc(S(=O)(=O)/N=C(/NN)NNc2cccc(C(F)(F)F)n2)c(S)cc1Cl`, the EC50 is greater than 200 µM and the IC50 was determined as 42.7 µM. In the same order, the values of `CCOC1=NC(O)c2cccn2-c2sccc21` (stereo not given) are greater than 200 µM and 126 µM. The like results for `COc1cc(C2C(Cl)C(=O)N2NC(=O)c2ccc(NC(C)=O)cc2)cc(OC)c1OC` (stereo not given) were, in that order, greater than 200 µM and greater than 200 µM. Consider `CC1=C2CCC(O)CC2(C)C(O)C1C` (stereo not given), for which the result was inactive.

`CCN1CCCCC(=N\O)/C(=N/O)CCCC1`: the EC50 is greater than 741 µM and the concentration for half-maximal inhibition (IC50) is greater than 741 µM. Turning to `CC(=O)Oc1ccc(-c2oc3c([C@H]4C=C(C)CC(c5ccc(OC(C)=O)cc5OC(C)=O)[C@@H]4C(=O)c4ccc(OC(C)=O)c(CC=C(C)C)c4O)c(OC(C)=O)cc(O)c3c(=O)c2CC=C(C)C)c(OC(C)=O)c1` (stereo not given in full), the EC50 is greater than 5.13 µM and the IC50 is greater than 5.13 µM. As for `C[C@]12CC[C@H](OC(=O)/C=C\c3ccc(N(CCCl)CCCl)cc3)CC1CC[C@@H]1C2CC[C@]2(C)NC(=O)CCC12` (stereo not given in full), the result was inactive. For `O=C1C2C3CCC(C3)C2S(=O)(=O)C2C3CCC(C3)C12` (stereo not given), the EC50 is greater than 200 µM and the IC50 was greater than 200 µM.

In the case of `O=C(O)c1ccccc1CC1Cc2ccc3c(c2C1=O)CCC3` (stereo not given), the EC50 was greater than 200 µM and the IC50 stood at 112 µM. The like results for `O=C(/C=C/c1ccc(Cl)c(Cl)c1)c1ccc2ccccc2c1` were, in that order, greater than 11.5 µM and greater than 11.5 µM. With `COC(=O)C1(C(=O)OC)CC(=O)c2cc3c(cc2-c2c(cc(OC)c(OC)c2OC)C1)OCO3`, the EC50 was greater than 28.8 µM and the IC50 was greater than 28.8 µM. `C1CC[N+]2(C1)CC[N+]1(CCCC1)CC2`: the EC50 is greater than 200 µM and the IC50 is greater than 200 µM. On to `CC(C)c1ccccc1NC(=O)/C(Cl)=C1/Sc2ccccc2NC1=O`, for which the EC50 was greater than 10 µM and the IC50 was greater than 10 µM. In the case of `Cc1ccc(Nc2nc(N)nc(N)c2N=O)cc1C`, the EC50 was greater than 200 µM and the IC50 was greater than 200 µM. Regarding `NC(C/C=C/P(=O)(O)O)C(=O)O` (stereo not given), the EC50 was greater than 200 µM and the IC50 came to 155 µM. Regarding `NC(=O)NC1C(C(=O)O)N(Cc2ccccc2)C(=O)N1Cc1ccccc1` (stereo not given), the EC50 is greater than 490 µM and the IC50 is greater than 490 µM. On to `CC1=CC(=O)/C(=C/N2C(=S)NC(=O)/C2=C/c2cccc([N+](=O)[O-])c2)C(=O)O1`, for which the EC50 was greater than 200 µM and the IC50 is 138 µM.

Consider `CC(C)c1nc2c(c(=O)o1)CCS2`, for which the EC50 is greater than 182 µM and the IC50 was greater than 182 µM. As for `Cc1[nH]c(-c2ccccc2)c(O)c1C(=O)OC12CC3CC(CC(C3)C1)C2`, the EC50 is greater than 200 µM and the half-maximal inhibitory concentration (IC50) stood at 30.9 µM. Take `Cc1nn2c(=O)c([N+](=O)[O-])c(/C=C/c3ccc(F)cc3)nc2s1`: the EC50 was greater than 200 µM and the IC50 was 5.25 µM. The like results for `N/C(=N\NS(=O)(=O)c1ccccc1)Oc1ccc(Cl)cc1` were, in that order, greater than 398 µM and 339 µM. On to `Clc1ccc(C(c2ccc(Cl)cc2)c2cncnc2)cc1`, for which the outcome was inactive. `Cn1cnc([N+](=O)[O-])c1Sc1nc2ccccc2s1`: the EC50 was greater than 24.5 µM and the IC50 came out at 3.24 µM. The like results for `Cc1cccc(NP2(Nc3cccc(C)c3)=NP(Nc3cccc(C)c3)(Nc3cccc(C)c3)=NP(Nc3cccc(C)c3)(Nc3cccc(C)c3)=NP(Nc3cccc(C)c3)(Nc3cccc(C)c3)=N2)c1` were, in that order, greater than 200 µM and greater than 200 µM. In the same order, the values of `COc1ccc(S(=O)(=O)c2ccc(C(=O)O)cc2)cc1` are greater than 200 µM and greater than 200 µM. As for `CCOC(=O)/C=C/SCCCC(=O)O`, the half-maximal inhibitory concentration (IC50) was > 1150 µM and 1150 µM. With `C=CCOC(C)n1c(C)c(Br)c(=O)[nH]c1=O` (stereo not given), the outcome was inactive and the IC50 is greater than 200 µM. In the case of `N#CNC(N)=Nc1ccc(Cl)cc1`, the result was inactive. As to `CCOC(=O)/C(=C\c1ccc(Br)cc1)P(=O)(OCC)OCC`, the EC50 is greater than 331 µM and the IC50 amounted to 6.76 µM. The like results for `CN(c1ccccc1)S(=O)(=O)c1ccc([N+](=O)[O-])cc1` were, in that order, greater than 200 µM and 110 µM. For the compound `CC(C)C1=CC23CCC4C(C)(C(=O)O)CCCC4(C)C2CC1C1C(=O)N(c2ccc(N4C(=O)C5C6CC7C8(C)CCCC(C)(C(=O)O)C8CCC7(C=C6C(C)C)C5C4=O)cc2)C(=O)C13` (stereo not given), the EC50 is greater than 55 µM and the IC50 was 3.8 µM.

As for `c1ccc(CN2CCc3[nH]c4ccccc4c3C2)cc1`, the EC50 was greater than 200 µM and the half-inhibitory concentration (IC50) was found to be 21.9 µM. In the case of `CCOC(=O)c1ccc(NC(=O)Nc2ncccc2C)cc1`, the EC50 was greater than 200 µM and the IC50 was greater than 200 µM.

For the compound `O=C1OC[C@H](Cc2ccccc2)N1C(=O)[C@H]1NC(=S)OC1Cc1ccc(OCc2ccccc2)cc1` (stereo not given in full), the result was inactive.

Consider `COc1ccc2c(O)c(C)c(=O)n(C)c2c1`, for which the EC50 is greater than 200 µM and the half-maximal inhibitory concentration (IC50) is greater than 200 µM. On to `CCOC(=O)NC(=O)c1cn(C2OC(CO)C(O)C2O)c(=O)[nH]c1=O` (stereo not given), for which the EC50 was greater than 692 µM and the IC50 is greater than 692 µM. As to `O=C(/C=C/c1c(O)ccc2ccccc12)c1ccc2ccccc2c1`, the EC50 is greater than 112 µM and the IC50 was greater than 112 µM. On to `CN(C)c1ccc(/C=C/c2ccc3ccccc3[n+]2C)cc1`, for which the EC50 was 0.0631 µM and the IC50 was 0.398 µM. In the case of `COC12C=CC(CC1)C1=C2C(=O)c2nc(C)c(C)nc2C1=O` (stereo not given), the EC50 is greater than 63.1 µM and the IC50 amounted to 39.8 µM.

Regarding `O=C1C(Cl)C(c2ccc([N+](=O)[O-])cc2)N1n1cnc2ccccc2c1=O` (stereo not given), the EC50 is greater than 7.41 µM and the IC50 was greater than 7.41 µM. Consider `CC1(C)CC2C=C(C=O)C3(C=O)CC3(C)C2C1` (stereo not given), for which the EC50 is greater than 3.47 µM and the concentration for half-maximal inhibition (IC50) stood at 0.501 µM. Regarding `CCOC(=O)C(NC(C)=O)[CH](c1ccccc1)[Sn]([c]1ccccc1)([c]1ccccc1)[c]1ccccc1` (stereo not given), the EC50 is greater than 31.6 µM and the IC50 is 7.08 µM. Consider `CC(=O)Nc1ccccc1Sc1ccccc1`, for which the EC50 is greater than 245 µM and the IC50 came to 69.2 µM. The like results for `COCN1C(=O)[C@@H]2CCCN2C(=O)c2ccc([N+](=O)[O-])cc21` were, in that order, greater than 200 µM and greater than 200 µM.

With `CCC(C)(C)NS(=O)(=O)c1ccccc1`, the outcome was inactive. On to `CC(=O)OCC1OC(n2c(C)c(C(C)=O)c(-c3ccc(Cl)cc3)c(C#N)c2=S)C(OC(C)=O)C(OC(C)=O)C1OC(C)=O` (stereo not given), for which the EC50 is greater than 200 µM and the IC50 was determined as 148 µM. The like results for `CC/C(=N/O)C(C)C(=O)CCC(=O)Nc1ccc(Cl)cc1` (stereo not given) were, in that order, greater than 83.2 µM and greater than 83.2 µM. Take `CCCOC(=O)Nc1ccc2nc(N(C)C)sc2c1`: the EC50 was greater than 245 µM and the IC50 was 66.1 µM. In the same order, the values of `O=C(NCCCCCCCN1CCCCCCC1)C(C1CCCCC1)C1CCCCC1` are greater than 200 µM and 10.7 µM.

Turning to `CC(=O)NC(CO)C(=O)NC(Cc1ccc(O)cc1)C(=O)NCC(N)=O` (stereo not drawn) (Ac-Ser-Tyr-Gly-NH2; configuration not given here), the EC50 was greater than 200 µM and the concentration for half-maximal inhibition (IC50) was greater than 200 µM. `CCOP(=O)(OCC)/C(=C/NC(=S)c1cccnc1)C(=O)OC`: the EC50 is greater than 200 µM and the IC50 amounted to 34.7 µM. Consider `CC(Br)(c1ccccc1)[P+](c1ccccc1)(c1ccccc1)c1ccccc1` (stereo not given), for which the EC50 is greater than 20 µM and the IC50 was found to be 0.871 µM.

Turning to `Cc1c(CCCl)c(N=P(c2ccccc2)(c2ccccc2)c2ccccc2)n2c(nc3ccccc32)c1C#N`, the EC50 is greater than 200 µM and the IC50 was greater than 200 µM. Consider `Cc1nc(Nc2ccc([N+](=O)[O-])cc2)sc1C(=O)/C=C/c1ccc(N(C)C)cc1`, for which the EC50 is greater than 33.1 µM and the IC50 was found to be 18.6 µM. In the case of `CC(=O)Nc1c(C#N)c2n(c1C(=O)Nc1ccc(Cl)cc1)CCC2`, the EC50 is greater than 200 µM and the IC50 is greater than 200 µM. As to `O=C1C2=C(Nc3ccccc3N2)OC1c1ccncc1` (stereo not given), the EC50 was greater than 38 µM and the half-maximal inhibitory concentration (IC50) was greater than 38 µM. Regarding `CC(=O)Nc1ccc(S(=O)(=O)Nc2ccc(S(=O)(=O)c3ccc(-n4sc5ccccc5c4=O)cc3)cc2)cc1`, the concentration giving a half-maximal response (EC50) is 16.6 µM and the IC50 stood at 102 µM. The like results for `CCOC(=O)C(NC(=O)CC(C)C)(Nc1ccc(S(=O)(=O)Nc2nc(C)cc(C)n2)cc1)C(F)(F)F` (stereo not given) were, in that order, greater than 200 µM and greater than 200 µM.

As for `CC[C@@H]1NC(=O)[C@H]([C@H](O)C(C)C)N(C)C(=O)[C@H](C(C)C)N(C)C(=O)[C@H](CC(C)C)N(C)C(=O)[C@H](CC(C)C)N(C)C(=O)[C@@H](C)NC(=O)[C@H](CCCCNC(=O)COc2ccc(C[C@H](NC(=O)O[C@H]3CCOC3)[C@H](O)CN(CC(C)C)S(=O)(=O)c3ccc(N)cc3)cc2)NC(=O)[C@H](CC(C)C)N(C)C(=O)[C@H](C(C)C)NC(=O)[C@H](CC(C)C)N(C)C(=O)[C@@H](CO)N(C)C1=O` (cyclo([NMeLeu(3R-OH)][Abu][dNMeS][NMeL]V[NMeL]K(X10)[dA][NMeL][NMeL][NMeV])), the EC50 was 0.0501 µM and the IC50 was determined as 42.7 µM. With `COC(=O)CN(CC(=O)NCCCBr)C1CCCCC1N(CC(=O)OC)CC(=O)OC` (stereo not given), the EC50 was greater than 200 µM and the IC50 is greater than 200 µM. Regarding `CC(C)CC1C(=O)NCCC(NC(=O)C(Cc2ccc(OC(C)(C)C)cc2)NC(=O)OC(C)(C)C)C(=O)NC(Cc2ccccc2)C(=O)NC(Cc2ccccc2)NC1=O` (stereo not given), the EC50 was greater than 63.1 µM and the IC50 worked out at 7.24 µM.

In the case of `O=c1/c(=C/c2ccccc2[N+](=O)[O-])sc2nnc(-c3cccnc3)n12`, the EC50 is greater than 186 µM and the IC50 is greater than 186 µM. On to `Cc1cnc([C@H]2CCC3[C@@H]4CC=C5C[C@@H](O)CC[C@]5(C)C4CC[C@@]32C)s1` (stereo not given in full), for which the EC50 was greater than 67.6 µM and the IC50 is greater than 67.6 µM.

The record behind these values is PubChem BioAssay AID179 (DTP/NCI, 2004).
